Tests used:
Conditions in all cases: mcf7
Estrogen receptor [1] = molecular target: T1, Estrogen receptor (Homo sapiens, UniProt Q92731+P03372); assay: Affinity for estrogen receptor of human MCF-7 cells at 10e-5 M; assay type: cell-based
Estrogen receptor [2] = molecular target: T1, Estrogen receptor; assay: Affinity for estrogen receptor of human MCF-7 cells; assay type: cell-based
Estrogen receptor [3] = molecular target: T1, Estrogen receptor; assay: Induction of pS2 Gene expression in human MCF-7 cells; assay type: functional, cell-based

Row | EC50 (Estrogen receptor [1]) | EC50 (Estrogen receptor [2]) | EC50 (Estrogen receptor [3]) | SMILES
1 | – | 620 nM | 148 nM | C[C@]12CC[C@@H]3c4ccc(O)c(CCO)c4CC[C@H]3[C@@H]1CC[C@@H]2O
2 | – | 364 nM | 11.7 nM | C[C@]12CC[C@@H]3c4ccc(O)c(CO)c4CC[C@H]3[C@@H]1CC[C@@H]2O

Further lines, the compound ahead of its results:

Row | SMILES | EC50 (Estrogen receptor [1]) | EC50 (Estrogen receptor [2]) | EC50 (Estrogen receptor [3])
3 | C[C@]12CC[C@@H]3c4ccc(O)c(CCN)c4CC[C@H]3[C@@H]1CC[C@@H]2O | 2.5 µM | – | –
4 | C[C@]12CC[C@@H]3c4ccc(O)c(O)c4CC[C@H]3[C@@H]1CC[C@@H]2O | – | 506 nM | 65.4 nM
5 | C[C@]12CC[C@@H]3c4ccc(O)c(CCCO)c4CC[C@H]3[C@@H]1CC[C@@H]2O | – | 3320 nM | 2950 nM
